Results as given in PubChem BioAssay (NCI).
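Following 48 hours of exposure in 96-well plates, responses at five concentrations were used to interpolate endpoints linearly. TGI: concentration producing complete growth inhibition.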

Columns and labels:
Experiment in all cases: NCI tumour cell line growth inhibition, 48 h
[1] = tested on: SK-OV-3 ovarian
[2] = tested on: SF-268 CNS
[3] = tested on: NCI/ADR-RES ovarian
[4] = tested on: NCI-H460 lung
[5] = tested on: ACHN renal
[6] = tested on: HCT-15 colon
[7] = tested on: UO-31 renal
[8] = tested on: SK-MEL-2 melanoma
[9] = tested on: IGROV1 ovarian
[10] = tested on: A549 NSCLC
[11] = tested on: K-562 leukemia
[12] = tested on: U251 CNS
[13] = tested on: BT-549 breast
[14] = tested on: OVCAR-4 ovarian
[15] = tested on: M14 melanoma
[16] = tested on: RXF 393 renal
[17] = tested on: HS 578T breast
[18] = tested on: LOX IMVI melanoma
[19] = tested on: MDA-MB-435
[20] = tested on: PC-3 prostate
[21] = tested on: SK-MEL-5 melanoma
[22] = tested on: HOP-92 NSCLC
[23] = tested on: MDA-N
[24] = tested on: DU-145 prostate
[25] = tested on: MOLT-4 leukemia
[26] = tested on: 786-0 renal
[27] = tested on: SNB-19 CNS
[28] = tested on: EKVX NSCLC
[29] = tested on: MCF7 breast
[30] = tested on: CCRF-CEM leukemia
[31] = tested on: SR leukemia
[32] = tested on: SW-620 colon
[33] = tested on: HT29 colon
[34] = tested on: TK-10 renal
[35] = tested on: SNB-75 CNS
[36] = tested on: UACC-257 melanoma
[37] = tested on: CAKI-1 renal
[38] = tested on: OVCAR-8 ovarian
[39] = tested on: OVCAR-3 ovarian
[40] = tested on: COLO 205 colon
[41] = tested on: MDA-MB-231 breast
[42] = tested on: OVCAR-5 ovarian
[43] = tested on: SK-MEL-28 melanoma
[44] = tested on: SF-295 CNS
[45] = tested on: HCC-2998 colon
[46] = tested on: HL-60(TB) leukemia
[47] = tested on: KM12 colon
[48] = tested on: SN12C renal
[49] = tested on: HCT-116 colon
[50] = tested on: T-47D breast
[51] = tested on: UACC-62 melanoma
[52] = tested on: SF-539 CNS
[53] = tested on: RPMI-8226 leukemia
[54] = tested on: HOP-62 NSCLC
[55] = tested on: NCI-H23 lung
[56] = tested on: MALME-3M melanoma
[57] = tested on: NCI-H226 lung
[58] = tested on: NCI-H522 lung
[59] = tested on: A498 renal

`Cc1cc2nc(N3C(=O)/C(=C/c4cccc([N+](=O)[O-])c4)N=C3c3ccccc3)sc2cc1C` showed a TGI [1] greater than 100 µM, a TGI [2] greater than 100 µM and a TGI [3] greater than 100 µM. For the same molecule, the TGI [4] was greater than 100 µM, the TGI [5] was greater than 100 µM and the TGI [6] was greater than 100 µM. The TGI [7] was greater than 100 µM, the TGI [8] was 60 µM and the TGI [9] was greater than 100 µM. The TGI [10] was greater than 100 µM, the TGI [11] was greater than 100 µM and the TGI [12] was 58 µM. It also gave a TGI [13] greater than 100 µM, a TGI [14] of 96.2 µM and a TGI [15] greater than 100 µM. For the same molecule, the TGI [16] was 58 µM, the TGI [17] was greater than 100 µM and the TGI [18] was 55.8 µM. The TGI [19] was 36.5 µM, the TGI [20] was 56.5 µM and the TGI [21] was greater than 100 µM. The TGI [22] was 58.2 µM, the TGI [23] was 34.1 µM and the TGI [24] was greater than 100 µM. It also gave a TGI [25] of 32.4 µM, a TGI [26] greater than 100 µM and a TGI [27] greater than 100 µM. For the same molecule, the TGI [28] was 94.3 µM, the TGI [29] was 43.9 µM and the TGI [30] was 23.4 µM. For the same molecule, the TGI [31] was 35.1 µM, the TGI [32] was greater than 100 µM and the TGI [33] was 75.9 µM. It also gave a TGI [34] greater than 100 µM, a TGI [35] of 33.2 µM and a TGI [36] greater than 100 µM. For the same molecule, the TGI [37] was greater than 100 µM, the TGI [38] was 80.2 µM and the TGI [39] was greater than 100 µM. It also gave a TGI [40] greater than 100 µM, a TGI [41] greater than 100 µM and a TGI [42] greater than 100 µM. It also gave a TGI [43] greater than 100 µM, a TGI [44] greater than 100 µM and a TGI [45] of 53.7 µM. For the same molecule, the TGI [46] was 54.5 µM, the TGI [47] was greater than 100 µM and the TGI [48] was greater than 100 µM. The TGI [49] was greater than 100 µM, the TGI [50] was greater than 100 µM and the TGI [51] was greater than 100 µM. It also gave a TGI [52] greater than 100 µM, a TGI [53] of 48.1 µM and a TGI [54] greater than 100 µM.
`CC(=O)OC1/C(=C/c2ccc([N+](=O)[O-])cc2)C[C@H]2[C@@H]3CC=C4C[C@@H](OC(C)=O)CC[C@]4(C)[C@H]3CC[C@]12C` (stereo partly drawn) showed a TGI [1] greater than 100 µM, a TGI [2] greater than 100 µM and a TGI [3] greater than 100 µM. For the same molecule, the TGI [4] was greater than 100 µM, the TGI [5] was greater than 100 µM and the TGI [6] was greater than 100 µM. The TGI [7] was greater than 100 µM, the TGI [8] was greater than 100 µM and the TGI [9] was greater than 100 µM. The TGI [10] was greater than 100 µM, the TGI [12] was greater than 100 µM and the TGI [55] was greater than 100 µM. The TGI [13] was greater than 100 µM, the TGI [14] was greater than 100 µM and the TGI [15] was greater than 100 µM. The TGI [16] was 60.4 µM, the TGI [17] was greater than 100 µM and the TGI [18] was greater than 100 µM. The TGI [19] was greater than 100 µM, the TGI [20] was greater than 100 µM and the TGI [21] was greater than 100 µM. The TGI [56] was greater than 100 µM, the TGI [22] was greater than 100 µM and the TGI [23] was greater than 100 µM. The TGI [57] was greater than 100 µM, the TGI [24] was greater than 100 µM and the TGI [26] was greater than 100 µM. The TGI [27] was greater than 100 µM, the TGI [28] was greater than 100 µM and the TGI [29] was greater than 100 µM. For the same molecule, the TGI [30] was greater than 64.8 µM, the TGI [31] was greater than 20.7 µM and the TGI [32] was greater than 100 µM. The TGI [33] was greater than 100 µM, the TGI [34] was greater than 80.3 µM and the TGI [36] was greater than 100 µM. It also gave a TGI [37] greater than 100 µM, a TGI [38] greater than 100 µM and a TGI [39] greater than 100 µM. The TGI [58] was greater than 100 µM, the TGI [40] was greater than 100 µM and the TGI [41] was greater than 100 µM. The TGI [42] was greater than 100 µM, the TGI [43] was greater than 100 µM and the TGI [44] was greater than 100 µM. It also gave a TGI [45] greater than 100 µM, a TGI [46] of 13.3 µM and a TGI [47] greater than 100 µM. It also gave a TGI [48] greater than 100 µM, a TGI [49] greater than 100 µM and a TGI [50] greater than 100 µM. For the same molecule, the TGI [51] was greater than 100 µM, the TGI [52] was greater than 100 µM and the TGI [59] was greater than 96.2 µM. The TGI [53] was greater than 100 µM and the TGI [54] was greater than 100 µM.
Molecule `COc1ccccc1/C=C1\Sc2scc(-c3cccc([N+](=O)[O-])c3)[n+]2C1=O` has a TGI [1] of 26 µM, a TGI [2] of 18 µM and a TGI [3] of 34.2 µM. For the same molecule, the TGI [4] was 26.9 µM, the TGI [5] was 9.93 µM and the TGI [6] was 5.92 µM. The TGI [7] was 9.86 µM, the TGI [8] was 31.3 µM and the TGI [9] was 26.1 µM. For the same molecule, the TGI [10] was 35.4 µM, the TGI [11] was greater than 100 µM and the TGI [12] was 39.6 µM. The TGI [55] was 29.6 µM, the TGI [13] was 12.6 µM and the TGI [14] was 43.2 µM. The TGI [15] was 18.6 µM, the TGI [16] was 10.7 µM and the TGI [17] was greater than 62.6 µM. For the same molecule, the TGI [18] was 4.39 µM, the TGI [19] was 18.2 µM and the TGI [20] was 37.4 µM. For the same molecule, the TGI [21] was 8.86 µM, the TGI [56] was 15.7 µM and the TGI [22] was 16.6 µM. For the same molecule, the TGI [23] was 12.3 µM, the TGI [57] was 33.5 µM and the TGI [24] was 26.6 µM. The TGI [25] was 3.44 µM, the TGI [26] was 9.63 µM and the TGI [27] was 25.8 µM. For the same molecule, the TGI [28] was 28 µM, the TGI [29] was 10.3 µM and the TGI [31] was greater than 100 µM. The TGI [32] was greater than 36.4 µM, the TGI [33] was 9.97 µM and the TGI [34] was 10.7 µM. The TGI [35] was 34.4 µM, the TGI [36] was 19.8 µM and the TGI [37] was 6.24 µM. For the same molecule, the TGI [38] was 24.8 µM, the TGI [39] was 26.7 µM and the TGI [58] was 3.61 µM. The TGI [40] was 5.19 µM, the TGI [41] was 19.3 µM and the TGI [42] was 39 µM. It also gave a TGI [43] of 65.2 µM, a TGI [44] of 40.2 µM and a TGI [45] of 22.8 µM. It also gave a TGI [46] of 1.17 µM, a TGI [47] of 25.2 µM and a TGI [48] of 11.5 µM. The TGI [49] was 16.7 µM, the TGI [50] was 33.1 µM and the TGI [51] was 22.6 µM. The TGI [52] was 3.56 µM, the TGI [59] was 48.9 µM and the TGI [53] was 9.28 µM. It also gave a TGI [54] of 27.6 µM.
